Measurements from paper PMC8699473, “An Easily Expandable Multi-Drug LC-MS Assay for the Simultaneous Quantification of 57 Oral Antitumor Drugs in Human Plasma” (Cancers, 2021).

Assay: Long-term stability in spiked pooled human plasma

| SMILES | Long-term stability, 1 month, -20°C Accuracy [%] (validation standard 2xLLOV) | Long-term stability, 1 month, -80°C Accuracy [%] (validation standard 2xLLOV) | Long-term stability, 2 month, -20°C Accuracy [%] (validation standard 2xLLOV) | Long-term stability, 2 month, -80°C Accuracy [%] (validation standard 2xLLOV) | Long-term stability, 3 month, -20°C Accuracy [%] (validation standard 2xLLOV) | Long-term stability, 3 month, -80°C Accuracy [%] (validation standard 2xLLOV) | Long-term stability, 6 weeks, 4°C, without daylight Accuracy [%] (validation standard 2xLLOV) | Long-term stability, 1 month, -20°C Accuracy [%] (validation standard MOV) | Long-term stability, 1 month, -80°C Accuracy [%] (validation standard MOV) | Long-term stability, 2 month, -20°C Accuracy [%] (validation standard MOV) | Long-term stability, 2 month, -80°C Accuracy [%] (validation standard MOV) | Long-term stability, 3 month, -20°C Accuracy [%] (validation standard MOV) | Long-term stability, 3 month, -80°C Accuracy [%] (validation standard MOV) | Long-term stability, 6 weeks, 4°C, without daylight Accuracy [%] (validation standard MOV) | Long-term stability, 1 month, -20°C Accuracy [%] (validation standard ULOV) | Long-term stability, 1 month, -80°C Accuracy [%] (validation standard ULOV) | Long-term stability, 2 month, -20°C Accuracy [%] (validation standard ULOV) | Long-term stability, 2 month, -80°C Accuracy [%] (validation standard ULOV) | Long-term stability, 3 month, -20°C Accuracy [%] (validation standard ULOV) | Long-term stability, 3 month, -80°C Accuracy [%] (validation standard ULOV) | other results |
| --- | --- | --- | --- | --- | --- | --- | --- | --- | --- | --- | --- | --- | --- | --- | --- | --- | --- | --- | --- | --- | --- |
| NC(=O)c1cccc2cn(-c3ccc([C@@H]4CCCNC4)cc3)nc12 [Niraparib] | 101.4% | 94.5% | 104.1% | 106.0% | 99.8% | 95.7% | 96.1% | 99.8% | 99.6% | 105.3% | 103.9% | 102.2% | 100.4% | 104.5% | 100.8% | 98.5% | 103.3% | 104.1% | 100.4% | 101.8% | Long-term stability, 1 month, -20°C Accuracy [%] (validation standard LLOV): 97.8%; Long-term stability, 1 month, -80°C Accuracy [%] (validation standard LLOV): 93.4%; Long-term stability, 2 month, -20°C Accuracy [%] (validation standard LLOV): 101.8%; Long-term stability, 2 month, -80°C Accuracy [%] (validation standard LLOV): 102.4%; Long-term stability, 3 month, -20°C Accuracy [%] (validation standard LLOV): 96.1%; Long-term stability, 3 month, -80°C Accuracy [%] (validation standard LLOV): 95.4%; Long-term stability, 6 weeks, 4°C, without daylight Accuracy [%] (validation standard LLOV): 94.3%; Long-term stability, 6 weeks, 4°C, without daylight Accuracy [%] (validation standard ULOV): 96.4% |
| O=C(c1cc(Cc2n[nH]c(=O)c3ccccc23)ccc1F)N1CCN(C(=O)C2CC2)CC1 [Olaparib] | 100.3% | 98.2% | 103.8% | 103.3% | 99.8% | 103.3% | 96.6% | 95.3% | 92.9% | 97.5% | 96.8% | 97.6% | 96.7% | 107.5% | 99.1% | 98.1% | 102.1% | 101.1% | 98.9% | 100.7% | Long-term stability, 1 month, -20°C Accuracy [%] (validation standard LLOV): 112.8%; Long-term stability, 1 month, -80°C Accuracy [%] (validation standard LLOV): 110.5%; Long-term stability, 2 month, -20°C Accuracy [%] (validation standard LLOV): 115.9%; Long-term stability, 2 month, -80°C Accuracy [%] (validation standard LLOV): 115.8%; Long-term stability, 3 month, -20°C Accuracy [%] (validation standard LLOV): 111.4%; Long-term stability, 3 month, -80°C Accuracy [%] (validation standard LLOV): 115.4%; Long-term stability, 6 weeks, 4°C, without daylight Accuracy [%] (validation standard LLOV): 105.6%; Long-term stability, 6 weeks, 4°C, without daylight Accuracy [%] (validation standard ULOV): 105.6% |
| Cc1[nH]c2ccccc2c1CCNCc1ccc(/C=C/C(=O)NO)cc1 [Panobinostat] | 52.2% | 59.0% | 66.3% | 107.6% | 57.5% | 67.6% | 11.4% | 82.0% | 84.1% | 75.7% | 87.5% | 66.1% | 82.1% | 67.6% | 89.6% | 89.9% | 98.1% | 99.4% | 87.5% | 100.2% | Long-term stability, 1 month, -20°C Accuracy [%] (validation standard LLOV): 38.2%; Long-term stability, 1 month, -80°C Accuracy [%] (validation standard LLOV): 33.7%; Long-term stability, 2 month, -20°C Accuracy [%] (validation standard LLOV): 21.2%; Long-term stability, 2 month, -80°C Accuracy [%] (validation standard LLOV): 29.9%; Long-term stability, 3 month, -20°C Accuracy [%] (validation standard LLOV): 8.2%; Long-term stability, 3 month, -80°C Accuracy [%] (validation standard LLOV): 34.0%; Long-term stability, 6 weeks, 4°C, without daylight Accuracy [%] (validation standard ULOV): 79.4% |
| Nc1cccc2c1C(=O)N(C1CCC(=O)NC1=O)C2=O (stereo not shown) [Pomalidomide] | 90.4% | 90.2% | 107.3% | 96.6% | 95.5% | 97.4% | 19.0% | 90.6% | 88.3% | 97.2% | 99.4% | 90.0% | 94.9% | 15.7% | 94.6% | 89.1% | 94.1% | 99.0% | 87.6% | 95.1% | Long-term stability, 1 month, -20°C Accuracy [%] (validation standard LLOV): 91.3%; Long-term stability, 1 month, -80°C Accuracy [%] (validation standard LLOV): 85.8%; Long-term stability, 2 month, -20°C Accuracy [%] (validation standard LLOV): 95.9%; Long-term stability, 2 month, -80°C Accuracy [%] (validation standard LLOV): 99.9%; Long-term stability, 3 month, -20°C Accuracy [%] (validation standard LLOV): 97.6%; Long-term stability, 3 month, -80°C Accuracy [%] (validation standard LLOV): 97.4%; Long-term stability, 6 weeks, 4°C, without daylight Accuracy [%] (validation standard LLOV): 30.1%; Long-term stability, 6 weeks, 4°C, without daylight Accuracy [%] (validation standard ULOV): 11.3% |
| Cc1ccc(C(=O)Nc2ccc(CN3CCN(C)CC3)c(C(F)(F)F)c2)cc1C#Cc1cnc2cccnn12 [Ponatinib] | 99.2% | 94.7% | 95.8% | 97.8% | 93.4% | 98.9% | 91.7% | 92.3% | 93.7% | 99.2% | 101.1% | 95.0% | 95.3% | 97.9% | 95.0% | 90.8% | 97.0% | 100.1% | 93.8% | 93.5% | Long-term stability, 6 weeks, 4°C, without daylight Accuracy [%] (validation standard ULOV): 89.4% |
| CNC(=O)c1cc(Oc2ccc(NC(=O)Nc3ccc(Cl)c(C(F)(F)F)c3)c(F)c2)ccn1 [Regorafenib] | 101.2% | 104.0% | 105.6% | 104.3% | 90.7% | 103.7% | 80.6% | 101.6% | 106.3% | 105.8% | 112.2% | 97.1% | 100.4% | 101.0% | 104.7% | 103.8% | 108.5% | 107.0% | 92.9% | 103.1% | Long-term stability, 1 month, -20°C Accuracy [%] (validation standard LLOV): 105.4%; Long-term stability, 1 month, -80°C Accuracy [%] (validation standard LLOV): 102.9%; Long-term stability, 2 month, -20°C Accuracy [%] (validation standard LLOV): 106.3%; Long-term stability, 2 month, -80°C Accuracy [%] (validation standard LLOV): 104.7%; Long-term stability, 3 month, -20°C Accuracy [%] (validation standard LLOV): 94.0%; Long-term stability, 3 month, -80°C Accuracy [%] (validation standard LLOV): 105.1%; Long-term stability, 6 weeks, 4°C, without daylight Accuracy [%] (validation standard LLOV): 79.3%; Long-term stability, 6 weeks, 4°C, without daylight Accuracy [%] (validation standard ULOV): 95.5% |
